Test results reported in US20170081383A1, “MELANOCORTIN ANALOGS HAVING ENHANCED ACTIVITY AND TRANSPORT” (Tensive Controls Inc., priority 2012, published 2017).
“Also recorded” adds a separate entry of the source. Blank lines part the entries; values can stand above or below the compound they belong to. Positions of bridges follow the written chain, without caps; N, C: chain ends. Non-standard residues stand in square brackets, D forms with d. Residues, ends and D or L forms follow the SMILES beside them. No end group written: not given here. β2Val = β2-Val (beta2-Val), beta-amino acid; d2Nal = N[C@H](Cc1ccc2ccccc2c1)C(=O)O; β3hP = O=C(O)C[C@@H]1CCCN1; Nle = CCCC[C@H](N)C(=O)O

What was measured:
[1] = system: Lewis sarcoma rat; assay: Reversal of cachexia-induced lethargy; type: in vivo; conditions: once-daily peripheral dosing for 48 hours (2 IP doses), irrespective of tumor load
From the text: In animals and humans, cachexia produces “lethargy,” i.e., the aversion to activity. Grossberg et al., J. Neurosci. 31(31): 11376-11386. […] This therapeutic effect is dependent on a stabilized melanocortin antagonist C-terminal extension. Video recordings characterized control animal behavior as neo-exploratory movement about the cage, i.e., repeated “sniffing” the air to presumably sample odors (e.g., neighboring animals), grooming, and intermittent bouts of eating and drinking. Caldecott-Hazard et al., J. Neurosci. 8(6): 1951-1961 (1988).
The animal typically remains in one position for an extended period of time (>1 minute). Occasionally it will change position, assuming the new position for an extended period. The rats show no grooming behavior, evident in the appearance of their coat and eyes.

[2] = system: LPS-induced cachexia in rats; assay: Lipopolysaccharide (LPS)-induced cachexia assay; type: in vivo, rat; conditions: for food intake, 24 hours after LPS challenge / body weight (percent of pre-LPS baseline), 24 hours after LPS challenge: 0.2 mg/kg intraperitoneally; for food intake, 24 hours after LPS challenge: FIG. 8A; for body weight (percent of pre-LPS baseline), 24 hours after LPS challenge: FIG. 8B; for anti-cachectic activity after ICV (IVt) administration (in words): intracerebroventricular administration; for peripheral (IP) anti-cachexia activity, feeding (in words): peripheral / intraperitoneal administration after LPS
Description: The LPS model uses rats were maintained on a 12 h light/dark schedule with ad libitum access to food and water. Animals were handled daily for a minimum of three consecutive days to decrease non-specific handling stress. On the day of the experiment, individually housed animals received intraperitoneal injections of LPS dissolved in 0.5% low-endotoxin BSA, 0.9% saline or 0.5% BSA in 0.9% saline alone, and were returned to their home cage. The drug or control was administered (ICV, IP, or PO, depending on the type of study) 1-hour after LPS injection.
In the experiments described herein, a series of melanocortin receptor antagonist peptides were examined in a bacterial endotoxin inducing cachexia assay. For this assay, a rat is challenged with a single peripheral injection of lipopolysaccharide (LPS). LPS is a heat-stable lipo-polysaccharide, the major component of the outer membrane (capsule) of gram negative bacteria. In non-capsulated strains, it appears as a cell surface […]. LPS produces a strong immune response, including secretion of the proinflammatory cytokines Tumor Necrosis Factor α (TNFα) and interleukin-1 (IL-1). Proinflammatory cytokines are known factors that induce cachexia.
Rats are maintained on a 12-hour light/dark cycle. Animals are handled daily for a minimum of 5 consecutive days to acclimate them to the handling required for the experiment. […] On the day of the experiment, individually housed animals receive intraperitoneal (IP) injections of LPS dissolved in 0.5% low-endotoxin BSA, 0.9% saline or 0.5% BSA in 0.9% saline alone, and returned in their home cage. Melanocortin receptor antagonist peptides were administered (IP or by gavage, depending on the type of study) one hour after the LPS injection. The extent of cachexia is measured by the reduction in food intake, measured every two hours. The cachexia typically lasts only a single day. However, rats lose up to 5% of their body weight during a 12-hour light cycle, making up this loss plus food needed for normal growth during the 12-hour dark cycle. Thus, failure to eat appropriately during a single dark cycle is determinable from the animal's weight and any changes thereof.
A series of melanocortin receptor antagonist peptides were examined in a bacterial toxin inducing cachexia assay. In this assay, a rat was challenged with a single peripheral injection of lipopolysaccharide (LPS), a bacterial toxin that rapidly induces acute cachexia. The extent of cachexia was measured as a reduction in food intake, measured every two hours. The cachexia typically lasts only a single day.

[3] = system: cachexia models; conditions: Marks et al., Cancer Res. 2001; cited from earlier work
[4] = TCMCB07 in rat plasma and cerebrospinal fluid after IV administration (HPLC fluorescence, mass spectrometry); type: in vivo
Description: Urethane-Anesthetized Rats Had Polyethylene (PE)-Tubing Cannulas Placed in their Femoral artery and vein. Each rat was then placed in a small animal stereotaxic apparatus, their head fixed in the lateral plane with ear bars, and their head placed in a 45-50° downward angle by placing their nose below an adjustable tooth bar. This position placed the animal's cistern magna at the highest vertical position of its body. The dural covering of the dorsal cistern magna was exposed.
A stainless steel cannula, with one end attached to PE-tubing, was placed in a stereotaxic tower cannula holder (open end down). The free end of the PE-tubing was attached to a 100 μL gas-tight Hamilton syringe with a 28-gauge needle. The cannula was adjusted to a position that approximated the middle of the exposed cistern magna, and the cannula lowered until it touched the dura mater. […] The dura has a degree of flexibility such that the cannula can depress it before it pierces it. After it was pierced, the dural rises to its original position, placing the cannula tip within the cistern magna space. The position of the cannula tip was again noted on the vertical axis of the tower. Typically, the cannula tip was 1.6-1.8 mm below the original dura-touch position. The cannula tip was then adjusted, if needed, to 1.8 mm below the dura, and the cannula sealed to the dura using skin glue. Samples of cisternal cerebrospinal (CSF) fluid were removed through cannula and PE-tubing by slowly drawing on the Hamilton syringe.
For the experimental procedure, baseline samples of blood and CSF were taken (“0” time points), followed by the IV administration of 750 nmol/kg TCMCB07. Samples of CSF (50 μL) and blood (1 mL) were collected at the following time points: 0, 5, 15, 30, and 90 minutes. […] Both CSF and plasma were stored at −80° C. until analyzed by (HPLC) with spectrofluoremetric monitoring at 230 nm excitation and […] emission (the fluorescence maximum for the Nal residue). […]

[5] = Sutton et al., Peptides 2008; cited from earlier work
[6] = system: urethane-anesthetized rats; assay: Cardiovascular activity of melanocortin peptides (MAP, heart rate, ECG); conditions: 200 nmol, n = 5
Description: These studies were performed in urethane-anesthetized rats, since anesthesia is required for six-lead ECG monitoring. […] Initial selection of doses was guided by FDA exploratory IND studies with a recommendation for at least a 100-fold excess of the human dose.

Compound: CCCC[C@H](NC(C)=O)C(=O)N[C@H]1CC(=O)NCCCC[C@@H](C(=O)N[C@@H](C(=O)N2CCC[C@@H]2C(N)=O)C(C)C)NC(=O)[C@H](Cc2c[nH]c3ccccc23)NC(=O)[C@H](CCCNC(=N)N)NC(=O)[C@@H](Cc2ccc3ccccc3c2)NC(=O)[C@@H]2CCCN2C1=O [TCMCB07, Ac-Nle-c[Asp-Pro-D-Nal(2′)-Arg-Trp-Lys]-D-Val-D-Pro-NH2] (Ac-[Nle]DP[d2Nal]RWK[dV][dP]-NH2; lactam 2-7)
behavior of cachectic (lethargic) rats [1]: restored “normal” behavior to rats
food intake, 24 hours after LPS challenge [2]: stimulated appetites
body weight (percent of pre-LPS baseline), 24 hours after LPS challenge [2]: significantly gained weight
peripheral (IP) LPS anti-cachectic activity relative to TCMCB02 ([2]; IP): 10 fold
oral activity / gastrointestinal transport (in words) ([2]; gavage (intra-gastric) administration, LPS cachexia): significant enhancement of food intake
anti-cachectic activity after ICV (IVt) administration (in words) ([2]; LPS model): maintained ICV activity
peripheral (IP) anti-cachexia activity, feeding (in words) [2]: equivalent stimulation of feeding; also recorded: significant increase in feeding
activity following peripheral administration relative to TCMCB02 ([2]; peripheral administration): about 10 times

Compound: Ac-Nle-c[Asp-Pro-D-Nal(2′)-Arg-Trp-Lys]-β^3-Pro-β^2-Val-NH2 (Ac-[Nle]DP[d2Nal]RWK[β3hP][β2Val]-NH2; lactam 2-7) [TCMCB05]
behavior of cachectic (lethargic) rats [1]: restored “normal” behavior to rats
food intake, 24 hours after LPS challenge [2]: stimulated appetites
body weight (percent of pre-LPS baseline), 24 hours after LPS challenge [2]: significantly gained weight
molar activity relative to TCMCB02 ([2]; ICV administration, LPS-induced cachexia): 10 fold
anti-cachectic activity after ICV (IVt) administration (in words) ([2]; LPS model): molar activity equivalent to TCMCB02
peripheral (IP) anti-cachexia activity, feeding (in words) [2]: had IP anti-cachexia activity; also recorded: had peripheral anti-cachexia activity; also recorded: Only TCMCB07 produced a significant increase in feeding

Compound: AGRP: endogenous melanocortin system inhibitor (agouti-related protein); naturally occurring melanocortin antagonist protein (SSRRCVRLHESCLGQQVPCCDPCATCYCRFFNAFCYCRKLGTAMNPCSRT; ends and bridges not checked; cysteine pairing not given here; UniProt O00253 83-132, looked up)
reversal of cachexia-anorexia syndrome [3]: 100%

presence in CSF by mass spectrometry of HPLC effluent ([4]; after IV 750 nmol/kg, no obvious Nal-fluorescence peak): confirmed the presence of TCMCB07 in CSF
Compound: CCCC[C@H](NC(C)=O)C(=O)N[C@H]1CC(=O)NCCCC[C@@H](C(=O)N[C@@H](C(=O)N2CCC[C@@H]2C(N)=O)C(C)C)NC(=O)[C@H](Cc2c[nH]c3ccccc23)NC(=O)[C@H](CCCN=C(N)N)NC(=O)[C@@H](Cc2ccc3ccccc3c2)NC(=O)[C@@H]2CCCN2C1=O [TCMCB07, Ac-Nle-c[Asp-Pro-D-Nal(2′)-Arg-Trp-Lys]-D-Val-D-Pro-NH2] (Ac-[Nle]DP[d2Nal]RWK[dV][dP]-NH2; lactam 2-7)
proposed metabolite peak (retention time 12.9 minutes) in CSF ([4]; 5 and 30 minutes post IV 750 nmol/kg, peak height): peak height increases over time; also recorded: increased cerebrospinal fluid concentration
transport through the blood-brain-barrier (physical evidence) ([4]; IV 750 nmol/kg): direct physical evidence of TCMCB07 transport through the blood-brain-barrier
blood-brain barrier transport (concluded from peripheral vs ICV activity) ([2]; LPS model): both gastrointestinal and blood-brain barrier transport

Compound: Ac-Nle-c[Asp-Pro-D-Nal(2′)-Arg-Trp-Lys]-Pro-Val-NH2 (Ac-[Nle]DP[d2Nal]RWKPV-NH2; lactam 2-7) [PG932]
peripheral activity [5]: active peripherally
Duration [6]: 4 ± 3 min
Peak Heart Rate Response (BPM) [6]: 13 ± 9 BPM
Peak MAP Response (Δ mm Hg) [6]: 5 ± 3 mm Hg
